From US20250243186A1, “PIPERIDINYL INDOLE DERIVATIVES, PREPARATION METHODS AND MEDICINAL USES THEREOF” (HANSOH BIO LLC, priority 2021, published 2025)
Where two headings read alike, the source gives them in different places.

Molecular target: Recombinant human Factor B catalytic domain (Homo sapiens (Human), UniProt P00751)
Assay: Factor B binding assay by TR-FRET
Conditions: 10 nM his-tagged Factor B catalytic domain, 100 nM tracer, 1 h
[1] = read-out: Factor B TR-FRET IC50

Recombinant human Factor B catalytic domain, sequence (P00751 470-764): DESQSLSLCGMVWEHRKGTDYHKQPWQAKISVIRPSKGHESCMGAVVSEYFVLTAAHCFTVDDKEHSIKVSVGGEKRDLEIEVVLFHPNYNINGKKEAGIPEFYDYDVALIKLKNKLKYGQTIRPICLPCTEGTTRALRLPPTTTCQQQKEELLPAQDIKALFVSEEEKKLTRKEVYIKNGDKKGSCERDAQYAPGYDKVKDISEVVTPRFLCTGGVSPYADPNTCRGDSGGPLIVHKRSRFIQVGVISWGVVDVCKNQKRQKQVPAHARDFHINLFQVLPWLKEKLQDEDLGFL
Procedure: • 1. […] 5× Kinase Buffer A (Thermo Fisher, CAT #PV3189) • 3. LANCE Eu-W1024 Anti-6×His Antibody (PerkinElmer, CAT #AD0401) • 4.
DMSO (Thermo Fisher Scientific) • 6. Compounds—10 mM stock in DMSO • 7. Victor Nivo multimode plate reader (PerkinElmer) • 8.
Factor B binding affinity of each compound tested was determined using a time-resolved fluorescence resonance energy transfer (TR-FRET) technology. 10 nM recombinant his-tagged Factor B catalytic domain, varying concentrations of inhibitors, 4 nM LANCE Eu-W1024 Anti-6×His Antibody and 100 nM TR-FRET_tool2 tracer was incubated in 1× Kinase Buffer A for 1 h. Measurement was performed in a reaction volume of 15 μL by adding 5 μL of the test compound, 5 μL of Factor B/antibody mixture and 5 μL of tracer into white opaque 384-well assay plates.

| IC50 (Factor B TR-FRET IC50 (nM)) [nM] | IC50 [1] [nM] | SMILES |
| --- | --- | --- |
| 43.7 | – | COc1cc(C)c2[nH]ccc2c1CN1CC2CC3(CC3)CC2C1c1ccc(C(=O)O)cc1 (single isomer, unassigned) [29 (Isomer 2), 4-(2-((5-methoxy-7-methyl-1H-indol-4-yl)methyl)hexahydro-1H-spiro[cyclopenta[c]pyrrole-5,1′-cyclopropan]-1-yl)benzoic acid] |
| 313 | – | Cc1cc(C)c2[nH]ccc2c1CN1CCC(CF)CC1c1ccc(C(=O)O)cc1 (single isomer, unassigned) [7 (Isomer 1), 4-(1-((5,7-dimethyl-1H-indol-4-yl)methyl)-4-(fluoromethyl)piperidin-2-yl)benzoic acid] |
| – | 2.1 | CCOc1cc(C)c2[nH]ccc2c1CN1CCC2(C[C@H]1c1ccc(C(=O)O)cc1)CC(F)(F)C2 [Example 86] |
| – | 3.1 | COc1cc(C)c2[nH]ccc2c1CN1CCC2(C[C@H]1c1ccc3c(C(=O)O)cccc3c1)CC(F)(F)C2 [Example 84] |
| 157 | – | Cc1cc(C)c2[nH]ccc2c1CN1CCC(CF)CC1c1ccc(C(=O)O)cc1 (single isomer, unassigned) [7 (Isomer 2), 4-(1-((5,7-dimethyl-1H-indol-4-yl)methyl)-4-(fluoromethyl)piperidin-2-yl)benzoic acid] |
| – | < 2 | COc1cc(C)c2[nH]ccc2c1CN1CCC2(C[C@H]1c1ccc(C(=O)O)c(C)c1)CC(F)(F)C2 [Example 62] |
| 729 | – | COc1cc(C)c2[nH]ccc2c1CN1CCC2(CCC1c1ccc(C(=O)O)cc1)CC2(F)F (single isomer, unassigned) [24 (Isomer 2), 4-(1,1-difluoro-6-((5-methoxy-7-methyl-1H-indol-4-yl)methyl)-6-azaspiro[2.6]nonan-7-yl)benzoic acid] |
| 180 | – | COc1cc(C)c2[nH]ccc2c1CN1C[C@@H]2CC(C)(C)C[C@@H]2C1c1ccc(C(=O)O)cc1 (single isomer, unassigned) [34 (Isomer 2)] |
| 132 | – | COc1cc(C)c2[nH]ccc2c1CN1CC2(CCOCC2)CC1c1ccc(C(=O)O)cc1 (stereo not drawn) [Example 30, 4-(2-((5-methoxy-7-methyl-1H-indol-4-yl)methyl)-8-oxa-2-azaspiro[4.5]decan-3-yl)benzoic acid] |
| – | 47.3 | C=C(F)c1cc(C)c2[nH]ccc2c1CN1CCC2(C[C@H]1c1ccc(C(=O)O)cc1)CC(F)(F)C2 [Example 81] |
| 7.7 | – | COc1cc(C)c2[nH]ccc2c1CN1C[C@@H]2CC(C)(C)C[C@@H]2C1c1ccc(C(=O)O)cc1 (single isomer, unassigned) [34 (Isomer 1)] |
| 31.5 | – | COc1cc(C)c2[nH]ccc2c1CN1CCCCC1c1ccc(C(=O)O)cc1C(F)F (single isomer, unassigned) [26 (Isomer 1), 3-(difluoromethyl)-4-(1-((5-methoxy-7-methyl-1H-indol-4-yl)methyl)piperidin-2-yl)benzoic acid] |
| 20.1 | – | COc1cc(C)c2[nH]ccc2c1CN1CCC2(CCC(F)(F)C2)CC1c1ccc(C(=O)O)cc1 (stereo not drawn) [Example 41, 4-(2,2-difluoro-8-((5-methoxy-7-methyl-1H-indol-4-yl)methyl)-8-azaspiro[4.5]decan-7-yl)benzoic acid] |
| – | 322 | COc1cc(C)c2[nH]ccc2c1CN1CCCCC1c1ccc(C(=O)O)c(C(F)F)c1 (stereo not drawn) [Example 25, 2-(difluoromethyl)-4-(1-((5-methoxy-7-methyl-1H-indol-4-yl)methyl)piperidin-2-yl)benzoic acid] |
| – | 844 | COc1cc(C)c2[nH]ccc2c1CN1CC(CF)CC1c1ccc(C(=O)O)cc1 (stereo not drawn) [Example 21, 4-(4-(fluoromethyl)-1-((5-methoxy-7-methyl-1H-indol-4-yl)methyl)pyrrolidin-2-yl)benzoic acid] |
| – | 143 | COc1cc(C)c2[nH]ccc2c1CN1CC2CN(CC(F)F)CC2C1c1ccc(C(=O)O)cc1 (stereo not drawn) [Example 23, 4-(5-(2,2-difluoroethyl)-2-((5-methoxy-7-methyl-1H-indol-4-yl)methyl)octahydropyrrolo[3,4-c]pyrrol-1-yl)benzoic acid] |
| 142 | – | Cc1cc(C)c2[nH]ccc2c1CN1CCC(C(F)F)CC1c1ccc(C(=O)O)cc1 (single isomer, unassigned) [6 (Isomer 2), 4-(4-(difluoromethyl)-1-((5,7-dimethyl-1H-indol-4-yl)methyl)piperidin-2-yl)benzoic acid] |
| 4.8 | – | COc1cc(C)c2[nH]ccc2c1CN1CCC2(CCO2)CC1c1ccc(C(=O)O)cc1 (single isomer, unassigned) [38 (Isomer 4), 4-(7-((5-methoxy-7-methyl-1H-indol-4-yl)methyl)-1-oxa-7-azaspiro[3.5]nonan-6-yl)benzoic acid] |
| – | 265 | Cc1cc(C)c2[nH]ccc2c1CN1C[C@@H]2CCCCC2C1c1ccc(C(=O)O)cc1 (stereo in doubt) [Example 10, 4-(2-((5,7-dimethyl-1H-indol-4-yl)methyl)octahydro-1H-isoindol-1-yl)benzoic acid] |
| 1410 | – | COc1cc(C)c2[nH]ccc2c1CN1CCC2(CCC1c1ccc(C(=O)O)cc1)CC2(F)F (single isomer, unassigned) [24 (Isomer 1), 4-(1,1-difluoro-6-((5-methoxy-7-methyl-1H-indol-4-yl)methyl)-6-azaspiro[2.6]nonan-7-yl)benzoic acid] |
| – | < 2 | Cc1cc(C(=O)O)ccc1[C@@H]1CC2(CCN1Cc1c(C3CC3)cc(C)c3[nH]ccc13)CC(F)(F)C2 [Example 83] |
| 16.6 | – | COc1cc(C)c2[nH]ccc2c1CN1CCC2(CCOC2)CC1c1ccc(C(=O)O)cc1 (single isomer, unassigned) [36 (Isomer 2), 4-(8-((5-methoxy-7-methyl-1H-indol-4-yl)methyl)-2-oxa-8-azaspiro[4.5]decan-7-yl)benzoic acid] |
| 81.5 | – | COc1cc(C)c2[nH]ccc2c1CN1CC2(CCOC2)CC1c1ccc(C(=O)O)cc1 (single isomer, unassigned) [28 (Isomer 2), 4-(7-((5-methoxy-7-methyl-1H-indol-4-yl)methyl)-2-oxa-7-azaspiro[4.4]nonan-8-yl)benzoic acid] |
| 125 | – | COc1cc(C)c2[nH]ccc2c1CN1CCC2(CCOC2)CC1c1ccc(C(=O)O)cc1 (single isomer, unassigned) [36 (Isomer 3), 4-(8-((5-methoxy-7-methyl-1H-indol-4-yl)methyl)-2-oxa-8-azaspiro[4.5]decan-7-yl)benzoic acid] |

| SMILES | IC50 (Factor B TR-FRET IC50 (nM)) [nM] | IC50 [1] [nM] |
| --- | --- | --- |
| COc1cc(C)c2[nH]ccc2c1C(C)N1CC2CCCC2C1c1ccc(C(=O)O)cc1 (single isomer, unassigned) [37 (Isomer 4), 4-(2-(1-(5-methoxy-7-methyl-1H-indol-4-yl)ethyl)octahydrocyclopenta[c]pyrrol-1-yl)benzoic acid] | 359 | – |
| COc1cc(C)c2[nH]ccc2c1C(C)N1CC2CCCC2C1c1ccc(C(=O)O)cc1 (single isomer, unassigned) [37 (Isomer 3), 4-(2-(1-(5-methoxy-7-methyl-1H-indol-4-yl)ethyl)octahydrocyclopenta[c]pyrrol-1-yl)benzoic acid] | 222 | – |
| COc1cc(C)c2[nH]ccc2c1C(C)N1CC2CCCC2C1c1ccc(C(=O)O)cc1 (single isomer, unassigned) [37 (Isomer 1), 4-(2-(1-(5-methoxy-7-methyl-1H-indol-4-yl)ethyl)octahydrocyclopenta[c]pyrrol-1-yl)benzoic acid] | 322 | – |
| Cc1cc(C)c2[nH]ccc2c1CN1CCC2(CCCO2)CC1c1ccc(C(=O)O)cc1 (single isomer, unassigned) [2 (Isomer 3), 4-(8-((5,7-dimethyl-1H-indol-4-yl)methyl)-1-oxa-8-azaspiro[4.5]decan-7-yl)benzoic acid] | 507 | – |
| Cc1cc(C)c2[nH]ccc2c1CN1CC2(CCCCC2)C1c1ccc(C(=O)O)cc1 (stereo not drawn) [Example 16, 4-(2-((5,7-dimethyl-1H-indol-4-yl)methyl)-2-azaspiro[3.5]nonan-1-yl)benzoic acid] | 305 | – |
| Cc1cc(C)c2[nH]ccc2c1CN1CCC2(CCCO2)CC1c1ccc(C(=O)O)cc1 (single isomer, unassigned) [2 (Isomer 6), 4-(8-((5,7-dimethyl-1H-indol-4-yl)methyl)-1-oxa-8-azaspiro[4.5]decan-7-yl)benzoic acid] | 60 | – |
| Cc1cc(Br)c(CN2CCC3(C[C@H]2c2ccc(C(=O)O)cc2)CC(F)(F)C3)c2cc[nH]c12 (single isomer, unassigned) [78 (Isomer 1)] | – | 7.4 |
| COc1cc(C)c2[nH]ccc2c1CN1CC2CC(C(F)F)CC2C1c1ccc(C(=O)O)cc1 (single isomer, unassigned) [39 (Isomer 1), 4-(5-(difluoromethyl)-2-((5-methoxy-7-methyl-1H-indol-4-yl)methyl)octahydrocyclopenta[c]pyrrol-1-yl)benzoic acid] | 2.6 | – |
| COc1cc(C)c2[nH]ccc2c1CN1CC2CC(C(F)F)CC2C1c1ccc(C(=O)O)cc1 (single isomer, unassigned) [39 (Isomer 3), 4-(5-(difluoromethyl)-2-((5-methoxy-7-methyl-1H-indol-4-yl)methyl)octahydrocyclopenta[c]pyrrol-1-yl)benzoic acid] | 7.3 | – |
| COc1cc(C)c2[nH]ccc2c1CN1CC2CC(C(F)F)CC2C1c1ccc(C(=O)O)cc1 (single isomer, unassigned) [39 (Isomer 2), 4-(5-(difluoromethyl)-2-((5-methoxy-7-methyl-1H-indol-4-yl)methyl)octahydrocyclopenta[c]pyrrol-1-yl)benzoic acid] | 4.1 | – |
| COc1cc(C)c2[nH]ccc2c1CN1CC2CCCC2C1c1ccc(C(=O)O)cc1 (single isomer, unassigned) [13 (Isomer 1), 4-(2-((5-methoxy-7-methyl-1H-indol-4-yl)methyl)octahydrocyclopenta[c]pyrrol-1-yl)benzoic acid] | 17.4 | – |
| Cc1cc(C)c2[nH]ccc2c1CN1CCC(CCCO)=CC1c1ccc(C(=O)O)cc1 (single isomer, unassigned) [2 (Isomer 2), 4-(1-((5,7-dimethyl-1H-indol-4-yl)methyl)-4-(3-hydroxypropyl)-1,2,5,6-tetrahydropyridin-2-yl)benzoic acid] | 360 | – |
